A short description of series [1]: Tinnitus patient treated with chronic oral memantine. Format: in vivo, human. The conditions noted are these: first patient in the USA, category I tinnitus, chronic oral 10 mg BID. From the text:
The efficacy of current therapy for tinnitus is controversial but includes devices that mask tinnitus and TRT (tinnitus retraining therapy) which is a technique utilizing white noise for a period of time to assist the patient to habituate to their tinnitus. […] We postulate that the administration of memantine would attenuate the neurotoxicity mechanisms of cochlear disorders and tinnitus, and also attenuate any abnormal neuronal plasticity in the temporal-parietal association cortex resulting in clinical efficacy for the treatment of tinnitus.

For series [2] the following is noted: rat, brain microdialysis with in vivo recovery; cited from earlier work.
For series [3] the following is noted: cited from earlier work.
Series [4] relates to tumor cells including lung, rhabdomyosarcoma, medulloblastoma, and thyroid adenocarcinoma. The conditions noted are these: cited from earlier work.
For series [5] the following is noted: cited from earlier work. The source holds these as a separate data set.
Series [6] concerns glutamate secreting tumors. The conditions noted are these: 25 mg/kg IP; cited from earlier work.
For series [7] the following is noted: in vivo; cited from earlier work.
Series [8] relates to L- and N type voltage-activated calcium channels, Na+ channels. The following applies: cited from earlier work.
For series [9] the following is noted: moderate and severe Alzheimer's disease; cited from earlier work.
The conditions of series [10]: up to 2 hours after induction of hypoxia/ischemia, immature and adult rats; cited from earlier work.
For series [11] the following is noted: lesions of the entorhinal cortex; cited from earlier work.
Series [12] concerns GABA or AMPA receptors. The conditions noted are these: cited from earlier work.
In series [13] the test system is NR2C and NR2D subunits. The following applies: cited from earlier work.
The conditions of series [14]: animal studies; cited from earlier work.
For series [15] the following is noted: rats with experimental acute liver failure; cited from earlier work.
The conditions of series [16]: one patient; metabolic deficits by PET not totally reversed; cited from earlier work.
Series [17] concerns the target NR1A/2B (Homo sapiens, UniProt Q05586+Q13224). The conditions noted are these: cited from earlier work.
For series [18] the following is noted: parallel treatment with memantine and 3-NP; cited from earlier work.
For series [19], the target named is NR2A of the NMDA receptor (Homo sapiens, UniProt Q05586+Q12879). The following applies: cited from earlier work.
Sequence of NR2A of the NMDA receptor (Q12879 23-1464, other chains not shown): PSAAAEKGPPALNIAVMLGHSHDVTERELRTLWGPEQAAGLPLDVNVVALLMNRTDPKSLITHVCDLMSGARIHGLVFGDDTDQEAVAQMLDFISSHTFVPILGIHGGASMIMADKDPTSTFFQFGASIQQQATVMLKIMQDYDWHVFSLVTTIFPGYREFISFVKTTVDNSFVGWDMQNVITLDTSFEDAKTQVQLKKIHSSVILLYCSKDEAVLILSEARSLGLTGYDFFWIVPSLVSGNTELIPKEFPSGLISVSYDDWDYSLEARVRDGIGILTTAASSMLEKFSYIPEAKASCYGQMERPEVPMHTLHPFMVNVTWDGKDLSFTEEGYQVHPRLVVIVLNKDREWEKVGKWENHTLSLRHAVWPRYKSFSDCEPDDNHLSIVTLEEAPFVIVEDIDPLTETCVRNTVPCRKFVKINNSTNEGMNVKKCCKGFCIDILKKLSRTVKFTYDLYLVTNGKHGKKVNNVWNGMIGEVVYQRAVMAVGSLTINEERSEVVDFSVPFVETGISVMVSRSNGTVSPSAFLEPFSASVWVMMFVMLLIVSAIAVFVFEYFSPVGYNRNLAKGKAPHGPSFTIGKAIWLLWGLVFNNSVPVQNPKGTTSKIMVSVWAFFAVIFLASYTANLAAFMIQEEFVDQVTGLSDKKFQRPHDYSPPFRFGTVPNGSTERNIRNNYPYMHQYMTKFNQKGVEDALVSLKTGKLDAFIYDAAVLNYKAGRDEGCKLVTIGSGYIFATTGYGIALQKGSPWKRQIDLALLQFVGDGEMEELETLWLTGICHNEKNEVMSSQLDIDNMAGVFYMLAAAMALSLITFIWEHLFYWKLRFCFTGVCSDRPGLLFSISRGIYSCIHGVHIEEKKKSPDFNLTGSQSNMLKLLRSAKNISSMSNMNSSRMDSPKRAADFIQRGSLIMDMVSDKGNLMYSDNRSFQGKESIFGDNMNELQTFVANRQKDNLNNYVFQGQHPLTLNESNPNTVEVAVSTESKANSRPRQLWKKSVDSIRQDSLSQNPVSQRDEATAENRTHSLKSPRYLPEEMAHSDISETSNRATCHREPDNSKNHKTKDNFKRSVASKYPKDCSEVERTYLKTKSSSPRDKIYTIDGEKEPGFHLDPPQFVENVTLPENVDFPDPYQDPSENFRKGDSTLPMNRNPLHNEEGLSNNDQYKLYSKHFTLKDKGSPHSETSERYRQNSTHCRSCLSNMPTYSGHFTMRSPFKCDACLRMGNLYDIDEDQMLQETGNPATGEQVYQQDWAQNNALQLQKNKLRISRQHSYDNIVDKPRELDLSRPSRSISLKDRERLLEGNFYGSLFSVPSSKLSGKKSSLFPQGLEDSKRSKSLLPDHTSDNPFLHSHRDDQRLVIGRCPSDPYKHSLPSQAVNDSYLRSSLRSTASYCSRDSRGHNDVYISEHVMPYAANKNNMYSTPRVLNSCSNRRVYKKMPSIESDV
The subject of series [20] is neuronal ganglion cell. The conditions noted are these: administered 4 hours after NMDA neurotoxicity; cited from earlier work.
In series [21] the test system is inner hair cell afferents. The following applies: animal models; cited from earlier work.
For series [22], the system named is cortical cell cultures. The conditions noted are these: cited from earlier work.
For series [23] the following is noted: rat, in vivo; cited from earlier work.
The conditions of series [24]: EAE (Wallstrom, 1996); cited from earlier work.
The conditions of series [25]: in vivo; cited from earlier work. This is another data set of the same source.
Series [26] has as its system D2, AMPA, kainate, alpha 1, alpha 2, and 5-HT re-uptake. The conditions noted are these: alpha 1, alpha 2, 5-HT re-uptake; cited from earlier work.
The conditions of series [27]: multiple sclerosis patients; cited from earlier work.
For series [28] the following is noted: cited from earlier work. The source holds these as a separate data set.
The test system of series [29] is hippocampal slices. The following applies: cited from earlier work.
The conditions of series [30]: in vivo; cited from earlier work. The source holds these as a separate data set.
In series [31] the test system is NMDA receptor. The conditions noted are these: cited from earlier work.
For series [32] the following is noted: animals studies; cited from earlier work.
Series [33] concerns BDNF mRNA. The following applies: rat limbic system; cited from earlier work.
For series [34] the following is noted: pre- or posttreatment, 20 mg/kg IP (von Euler, 1997); cited from earlier work.
The conditions of series [35]: injected directly into the VNC prior to UVD; cited from earlier work.
Series [36] concerns NMDA receptors. The following applies: perfused, ventilated rat lungs; cited from earlier work.
The conditions of series [37]: cited from earlier work. The source holds these as a separate data set.
The conditions of series [38]: rat, in vivo; cited from earlier work. The source holds these as a separate data set.
The conditions of series [39]: following nerve injury; cited from earlier work.
Series [40] deals with osteoblasts. The conditions noted are these: cited from earlier work.
For series [41], the system named is neurons. The conditions noted are these: cited from earlier work.
For series [42] the following is noted: healthy subjects; cited from earlier work.
For series [43] the following is noted: acute, sub-anesthetic doses, normal subjects; cited from earlier work.

The source of these data is US20040102525A1, “Compositions and methods of treating neurological disease and providing neuroprotection” (priority 2002, published 2004).

SMILES strings stand for the structures.

Sequence of NR1A/2B (Q13224 27-1484, other chains not shown): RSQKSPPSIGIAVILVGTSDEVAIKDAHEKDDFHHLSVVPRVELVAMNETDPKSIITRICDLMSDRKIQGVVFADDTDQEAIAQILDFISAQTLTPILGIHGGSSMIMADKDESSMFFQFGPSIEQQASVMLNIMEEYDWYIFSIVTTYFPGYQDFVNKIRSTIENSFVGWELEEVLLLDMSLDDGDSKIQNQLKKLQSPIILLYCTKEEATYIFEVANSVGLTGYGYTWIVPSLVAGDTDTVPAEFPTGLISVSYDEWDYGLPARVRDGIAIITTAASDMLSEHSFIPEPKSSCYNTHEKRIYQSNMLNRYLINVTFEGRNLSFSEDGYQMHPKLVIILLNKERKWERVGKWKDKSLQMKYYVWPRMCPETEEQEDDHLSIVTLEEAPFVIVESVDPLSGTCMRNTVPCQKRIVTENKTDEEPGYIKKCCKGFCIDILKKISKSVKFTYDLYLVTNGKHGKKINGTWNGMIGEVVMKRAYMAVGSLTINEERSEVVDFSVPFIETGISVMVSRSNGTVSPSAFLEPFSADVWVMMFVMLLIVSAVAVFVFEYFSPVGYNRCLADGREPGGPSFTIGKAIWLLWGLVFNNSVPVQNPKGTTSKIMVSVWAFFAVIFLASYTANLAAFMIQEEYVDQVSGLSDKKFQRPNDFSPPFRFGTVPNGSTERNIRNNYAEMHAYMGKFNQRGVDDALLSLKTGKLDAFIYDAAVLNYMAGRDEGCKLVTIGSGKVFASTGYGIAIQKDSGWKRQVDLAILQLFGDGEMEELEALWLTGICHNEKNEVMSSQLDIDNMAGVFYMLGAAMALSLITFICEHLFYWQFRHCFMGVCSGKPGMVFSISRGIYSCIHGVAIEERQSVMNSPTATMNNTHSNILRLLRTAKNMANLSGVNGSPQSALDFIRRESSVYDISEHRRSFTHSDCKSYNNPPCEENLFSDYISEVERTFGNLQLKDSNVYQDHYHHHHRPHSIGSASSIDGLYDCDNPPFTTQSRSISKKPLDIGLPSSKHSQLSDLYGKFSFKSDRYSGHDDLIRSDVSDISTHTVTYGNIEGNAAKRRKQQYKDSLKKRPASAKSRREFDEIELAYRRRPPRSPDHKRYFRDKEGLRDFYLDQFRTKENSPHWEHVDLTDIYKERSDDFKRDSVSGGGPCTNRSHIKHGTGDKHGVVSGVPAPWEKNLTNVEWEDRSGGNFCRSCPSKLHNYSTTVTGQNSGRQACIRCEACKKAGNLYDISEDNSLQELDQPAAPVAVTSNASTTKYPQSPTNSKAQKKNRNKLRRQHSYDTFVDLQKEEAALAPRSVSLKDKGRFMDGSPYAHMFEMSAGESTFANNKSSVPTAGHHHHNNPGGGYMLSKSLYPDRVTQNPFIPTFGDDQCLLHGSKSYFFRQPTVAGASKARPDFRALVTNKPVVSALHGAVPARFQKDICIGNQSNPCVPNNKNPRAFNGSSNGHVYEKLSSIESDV

Take `CC12CC3CC(C)(C1)CC(N)(C3)C2.Cl` [memantine, 1-amino-3,5-dimethyl-adamantane hydrochloride]: the response of tinnitus result in [1] is recorded as “successfully treated”. In addition, in series [2], the “free brain concentrations lower” value is 20-30%. The “TTP (time-to-peak concentration)” value in series [3] (after oral intake) is 6 to 8 h. For the same compound, in [3] (due to albumin binding), the “decrease of CSF (cerebrospinal fluid) concentration” value is listed as 20-50%. The “CSF concentrations lower (CSF sampling)” value in [3] (human subjects) is given as 30-40%. The serum levels in series [3] (humans, 20 mg per day) was 0.5 to 1.0 µM. Further, in series [3] (in vivo), the “blood brain barrier penetration” value is reported as “easily penetrates the blood brain barrier”, the “plasma clearance half-life (t1/2)” value was 60 to 100 h, the protein binding is listed as 42-45% and the “time to steady-state plasma levels” value is “approximately 21 days”. Also, the “absorption from the gastrointestinal tract” value in series [3] (oral) is on record as “completely absorbed”. The plasma levels in series [3] (patients treated with 10-30 mg per day) is 0.4 to 1.0 µM. Also, the “growth of brain and systemic glutamate secreting tumors” value in series [4] (in vitro) is reported as “slow the growth”. Also, the “in vitro proliferation of tumor cells” value in series [4] (lung, rhabdomyosarcoma, medulloblastoma, thyroid adenocarcinoma) is listed as “decrease in vitro proliferation”. Moreover, in series [4] (unobtainable at therapeutic human doses), the “levels at which in vitro proliferation was decreased” value is on record as 100 μM/ml. In addition, in [5] (combined with AchE inhibitors), the “drug interaction with AchE (acetylcholinesterase inhibitors)” value is listed as “no adverse drug interaction”. Moreover, the adverse events result in series [5] (dose-related) was “nausea, dizziness, and restlessness”. In series [5] (human, in vivo), the hepatic toxicity entry is given as “minimal hepatic toxicity”. The “patients with headache as adverse event” value in series [5] (patients who do not suffer from migraine, mild, usually transitory, dose related) is “up to 10%”. In [6], the “decrease of tumor volume” value is reported as 25% and the “tumor expansion facilitated by glutamate secretion” value was “blocked”. In series [7], the “therapeutic concentration that produces efficacy in Parkinson's disease” value is “less than 2 μM”. Further, in series [8], the “antagonism at L- and N type voltage-activated calcium channels, Na+ channels” value is on record as “weak antagonist”. In addition, in [9], the “rate of cognitive decline” value is reported as “efficacy in decreasing the rate of cognitive decline”. Further, the infarct size result in [10] was “significantly reduce infarct size”. Besides, in [11], the “time to normalized learning” value was at most 8 days and the “time to reversal of learning impairment” value is at most 3 days. The “effect on GABA or AMPA receptors” value in series [12] was “no effect”. Further, the “block of NR2C and NR2D subunits” value in series [13] is on record as “preferentially blocks”. In series [14], the “eliminating symptoms of drug withdrawal and addiction” value is “conflicting and usually negative”. The neurological status entry in series [15] is “significant improvement”. Also, the “cognitive effects in alcoholic dementia” value in [16] was “reversed cognitive effects”. Moreover, the “potency at NR1A/2B” value in series [17] was “intermediate potency”. In addition, in [18], the “enhanced neuronal density drop-out in the striatum” value is reported as 26% and the “reduction in volume in the striatum” value was 11.5%. Besides, the “effects at NR2A” value in series [19] is listed as “weak effects”. In addition, the “neuronal ganglion cell death” value in [20] is “prevention of neuronal ganglion cell death”. Besides, the “NMDA stimulated activity of inner hair cell afferents” value in series [21] is recorded as “selectively inhibit”. Moreover, the “apoptosis induced by gp120” value in [22] was “prevention of apoptosis”. In series [23], the “lesions of the NBM produced by mitochondrial toxins (3-NP)” value was “inhibited” and the “striatal lesions by malonate” value is listed as “significantly attenuated”. Moreover, the “effect on CNS inflammation, IFN-γ, lymphocytic proliferation, systemic immunity” value in series [24] is reported as “failed to have any effect”. For the same compound, in [25], the placental penetration result is “good placental penetration”, the teratogenesis entry is listed as “minimal teratogenesis” and the “toxicity to the fetus” value is reported as “non-toxic properties to the fetus”. Moreover, the “concentrations at which memantine interacts with multiple receptors” value in series [26] is “greater than 100 μM”. For the same compound, the “treatment of APN” value in series [27] is on record as “efficacy”. For the same compound, the “hippocampal damage, convulsions and cell death induced by ICV QUIN” value in series [28] (in vivo) is “prevents hippocampal damage, convulsions and cell death”. In addition, in [28] (simultaneous infusion of memantine), the “memory deficits by chronic ICV infusion of QUIN” value is given as “blocked”. For the same compound, in series [29] (6-10 μM), the “effect on LTP in hippocampal slices” value was “do not attenuate LTP”. Moreover, in series [29] (in vitro), the “increase of the CA1 pyramidal cell spike” value was 100%. For the same compound, in [29] (relevant human brain concentrations (1-μM)), the “synaptic functioning after removal of Mg++” value was “normalized synaptic functioning”. Further, the “efficacy as an anti-convulsant or in epilepsy” value in series [30] is reported as “minimal efficacy”. Moreover, the “NMDA channels left unblocked” value in [31] is 20%. In addition, the “levels at which action is specific for antagonism of the NMDA receptor” value in series [31] (does not affect other ligand-gated or voltage-gated channels) was 1 to 10 µM. The “induction of HSP, neuronal vacuolization and necrosis” value in [32] is “No induction of HSP (heat shock protein) or neuronal vacuolization and necrosis”. The “BDNF mRNA levels” value in series [33] is recorded as “increased BDNF mRNA levels”. Besides, in [34], the “neurological or morphological outcome” value was “failed to attenuate”.
In the case of `C[C@]12N[C@H](Cc3ccccc31)c1ccccc12` [MK-801], the “severity of the vestibular syndrome (SON, YHT)” value in series [35] is listed as “reduced the severity of the vestibular syndrome”. Moreover, the “pulmonary injury by NMDA receptor activation” value in series [36] is recorded as “prevented”. The “increased airway perfusion pressure produced by NMDA” value in series [37] (NMDA) was “abolished”. Besides, in series [37] (capsaicin), the “acute elevation in airway perfusion pressure by capsaicin” value is “attenuated in both magnitude and duration”. In [38], the “cortical spreading after infarction” value is “able to inhibit cortical spreading” and the hyperexcitability after infarction result is on record as “unable to reverse the hyperexcitability”. Further, the motorneurone death entry in series [39] is “reduced motorneurone death”. Further, the “inward currents in response to NMDA agonist stimulation” value in series [40] was “significant decrease in inward currents”. In series [41], the “neuronal loss by neurotoxic concentrations of glutamate” value is “attenuated the neuronal loss”.
Consider `CNC1(c2ccccc2Cl)CCCCC1=O` (stereo not shown) [ketamine], for which, in series [42], the “smooth pursuit of eye movements” value was “deficits in smooth pursuit of eye movements”. Moreover, the memory result in series [43] is “delayed memory recall and decreases in verbal and nonverbal memory”.
Regarding `NCC1(CC(=O)O)CCCCC1` [gabapentin], the “treatment of APN” value in series [27] is reported as “efficacy”.
